Source: patent US11066395B2, “Dimethylaminoethanol salt of a GLP-1 receptor modulator” (RECEPTOS LLC, priority 2016, dated 2021)
Counter-ions that a name gives are not always drawn. Like-named read-outs stand apart in the source and are kept apart here. Marks after values point to notes of the source that are not given here.

Assays:
[1] = counterion base; cited from earlier work
[2] = Hygroscopicity by DVS/GVS with XRPD post GVS; format: physicochemical
From the text: To determine the hygroscopicity of the dimethylaminoethanol salt the sample was submitted for DVS (FIG. 39).
The thermal event likely corresponds to the melt of the crystalline material.

[3] = pH solubility curve (buffers pH 1-pH 8, deionized water); format: physicochemical
Experimental: A range of buffers were made up (pH 1-pH 8) to understand the effect of pH on the measured solubility. In each case the pH is measured prior to isolation to ensure most accurate data. […] All solids were characterized by XRPD post solubility determination and shown all to be amorphous (FIG. 44), which is common when a solid is placed into aqueous conditions.

[4] = Hydration study: slurry in aqueous solvents containing 10% by volume of water, XRPD; format: physicochemical; details: acetone, acetonitrile or methanol/water 90/10 by volume
Experimental: To understand the potential of forming hydrates the dimethylaminoethanol salt was slurried in a series of aqueous solvents, containing 10% by volume of water.
When the solids were analyzed by XRPD post hydration study (FIG. 41), the majority of solids had been rendered amorphous. Only the acetone/water mixture had any signs of crystallinity, which corresponded to the input material. […] The generation of amorphous material could be due to the high affinity of the molecule (RP-101) with solvents and water.

[5] = Stress testing of dimethylaminoethanol salt (40° C./75% RH and 80° C./ambient, 1 week), XRPD and HPLC; format: physicochemical
Experimental: To better understand the physical and chemical stability of the dimethylaminoethanol salt, the salt was placed under stressed condition (40° C./75% RH and 80° C./Ambient) for 1 week. The solids were then removed and analyzed via both XRPD and HPLC to determine physical and chemical stability, respectively.

[6] = Thermodynamic solubility testing in pH 6.8 phosphate buffer; format: physicochemical; details: for solubility at 24 h: phosphate buffer, pH 6.8, aqueous buffer, thermodynamic from solid
Experimental: 0.5 mL of that buffer is then added to 5-10 mg of each crystalline salt hit. The pH of the resultant slurries are measured after 10 minutes and, if needed, adjusted back to pH 6.8 using the individual buffer component. Samples were stirred at room temperature for 24 hours, filtered, and analyzed for concentration by HPLC.

[7] = Salt screen: storage of salts at 40° C./75% RH for 7 days, re-analysis by XRPD
Experimental: These resultant suspensions were temperature cycled between ambient temperature (22° C.) and 40° C. in 4 hour cycles for 72 hours. Samples were analyzed by XRPD and any remaining solid was isolated by filtration using a centrifuge and tubes with a 0.45 m filter insert. Isolated solids were allowed to dry at ambient condition and analyzed by ^1H NMR.

For C[N+](C)(C)CCO.[OH-] [Choline hydroxide], the LogP [1] is given as −3.70 and the “pKa 1” value [1] is given as 11.00.
For NCCCC[C@H](N)C(=O)O [L-Lysine], the LogP [1] is given as −1.04 and the “pKa 3” value [1] is given as 2.16*.
In the case of CNC[C@H](O)[C@@H](O)[C@H](O)[C@H](O)CO [N-Methylglucamine, (2R,3R,4R,5S)-6-(methylamino)hexane-1,2,3,4,5-pentaol], the LogP [1] is listed as −3.37.
In the case of CCC1CCC(C2CC=C(c3cnc(-c4ccc(CC(NC(=O)c5ccc(C(C)(C)C)s5)C(=O)N5CC(C(=O)O)C5)cc4)nc3)CC2)CC1 (centres unmarked) [deanol-RP-101, 2-hydroxy-N,N-dimethylethanaminium 1-(2-(5-(tert-butyl)-thiophene-2-carboxamido)-3-(4-(5-(4′-ethyl-[1,1′-bi(cyclohexan)]-3-en-4-yl)-pyrimidin-2-yl)phenyl)propanoyl)azetidine-3-carboxylate salt], the “Hygroscopicity (DVS/GVS)” value [2] is reported as “the process was reversible and did not indicate the conversion to a hydrate”, the “XRPD post GVS compared to input material” value [2] is reported as “no change seen” and the Solubility ([3]; acidic conditions) is reported as “low”. For the same molecule, the Solubility ([3]; basic conditions) was “rises significantly”, the Solubility ([3]; deionized water) was “relatively high” and the “Hydrate formation (XRPD post hydration study)” value [4] was “no obvious hydrate”. For the same molecule, the “Crystalline form by XRPD post stability (physical stability)” value ([5]; 40° C./75% RH) was “same crystalline form was present”, the “Crystallinity by XRPD post stability” value ([5]; 40° C./75% RH) was “decrease in crystallinity” and the “Purity by HPLC post stress (chemical stability)” value ([5]; 40° C./75% RH) was 97.3%. The “Crystalline form by XRPD post stability (physical stability)” value ([5]; 80° C./ambient) was “same crystalline form was present” and the “Purity by HPLC post stress (chemical stability)” value ([5]; 80° C./ambient) was 96.8%.
In the case of CCC1CCC(C2CC=C(c3cnc(-c4ccc(CC(NC(=O)c5ccc(C(C)(C)C)s5)C(=O)N5CC(C(=O)O)C5)cc4)nc3)CC2)CC1 (centres unmarked) [meglumine-RP-101], the “Solubility” value ([6]; aqueous, pH 6.8 phosphate buffer, room temperature, 24 hours, HPLC, listed as Meglumine (DCM)) is reported as 160 µg/mL, the solubility at 24 h ([6]; aqueous, pH 6.8 phosphate buffer, room temperature, 24 hours, HPLC, read-out: Solubility) is reported as 303 µg/mL and the solubility at 24 h ([6]; material obtained from 1,4-dioxane, read-out: Solubility at pH 6.8) is reported as 303 µg/mL. The solubility at 24 h ([6]; material obtained from DCM, read-out: Solubility at pH 6.8) was 160 µg/mL, the “Stability at 40° C./75% RH (XRPD)” value ([7]; material obtained from 1,4-dioxane) was “Only small changes” and the “Stability at 40° C./75% RH (XRPD)” value ([7]; material obtained from DCM) was “decrease in crystallinity”. The “Stability at 40° C./75% RH (XRPD)” value ([7]; material obtained from MEK) was “Only small changes”.
